Values quoted from earlier work as cited in PMC9405102, “Targeted Modification and Structure-Activity Study of GL-29, an Analogue of the Antimicrobial Peptide Palustrin-2ISb” (Antibiotics, 2022).

Tests used:
[1] = system: Gram-positive and Gram-negative bacteria; parameters: method as in PMID 21193000; details: cited from earlier work
[2] = system: Staphylococcus aureus (S. aureus); parameters: method as in PMID 21911019; details: cited from earlier work
[3] = system: Escherichia coli (E. coli); parameters: method as in PMID 21911019; details: cited from earlier work
[4] = system: methicillin-resistant S. aureus (MRSA); parameters: method as in PMID 21911019; details: cited from earlier work
C. albicans = system: C. albicans; parameters: method as in PMID 21911019; details: at 100 μM; cited from earlier work

Q: For “GKKLFVNVLDKIRCKVAGGC [palustrin-2ISb-des-C7-des-N9, literature analogue with one helical part of Pa2ISb-des-C7]”, which “activity against Gram-positive and Gram-negative bacteria” value [1] is on record?
A: little activity

Q: With “GLWNSIKIAGKKLFVNVLDKIRCKVAGGCKTSPDVE [palustrin-2ISb, parent antimicrobial peptide of 36 residues isolated from Odorrana ishikawae]” as the sequence, how does the MIC [2] read?
A: 6.3 µM

Q: What about the MIC [3] of the same sequence?
A: 6.3 µM

Q: And the MIC [4]?
A: 100 µM

Q: And the “activity against C. albicans” value (C. albicans)?
A: no activity
